Like-named read-outs stand apart in the source and are kept apart here.
Legend:
[1] = Description: Chemical stability of the hemifumarate form of tenofovir alafenamide was compared with the monofumarate form. […] Conditions evaluated include temperature, relative humidity (RH), and the open or closed state of the container cap.
[2] = for Thermodynamic stability: solvents such as ACN, toluene, MTBE, acetone, THF, 2-methyl THF
[3] = remark: listed apart in the source
Method: DVS analysis was conducted using 4.951 mg of tenofovir alafenamide hemifumarate. The material was kept at 25° C. in nitrogen at humidities ranging from 10% to 90% relative humidity; each step was equilibrated for 120 minutes.

[4] = 40° C./75% RH Cap Closed, 0 weeks
[5] = 40° C./75% RH Cap Closed, 1 week
[6] = 40° C./75% RH Cap Closed, 2 weeks
[7] = 40° C./75% RH Cap Closed, 4 weeks
[8] = 40° C./75% RH Cap Closed, 8 weeks
[9] = 40° C./75% RH Cap Open, 0 weeks
[10] = 40° C./75% RH Cap Open, 2 weeks
[11] = 40° C./75% RH Cap Open, 4 weeks
[12] = 40° C./75% RH Cap Open, 8 weeks

Structure (SMILES)	% TA Area Normalized [1, 4] [%]	% Total Deg. Products [1, 4] [%]	% TA Area Normalized [1, 5] [%]	% Total Deg. Products [1, 5] [%]	% TA Area Normalized [1, 6] [%]	% Total Deg. Products [1, 6] [%]	% TA Area Normalized [1, 7] [%]	% Total Deg. Products [1, 7] [%]	% TA Area Normalized [1, 8] [%]	% Total Deg. Products [1, 8] [%]	% TA Area Normalized [1, 9] [%]	% Total Deg. Products [1, 9] [%]	% TA Area Normalized ([1]; 40° C./75% RH Cap Open, 1 week) [%]	% Total Deg. Products ([1]; 40° C./75% RH Cap Open, 1 week) [%]	% TA Area Normalized [1, 10] [%]	% Total Deg. Products [1, 10] [%]	% TA Area Normalized [1, 11] [%]	% Total Deg. Products [1, 11] [%]	% TA Area Normalized [1, 12] [%]	% Total Deg. Products [1, 12] [%]	other results
CC(C)OC(=O)[C@H](C)N[P@](=O)(CO[C@H](C)Cn1cnc2c(N)ncnc21)Oc1ccccc1 [Monofumarate form, 9-[(R)-2-[[(S)-[[(S)-1-(isopropoxycarbonyl)ethyl]amino]phenoxyphosphinyl]methoxy]propyl]adenine]	97.1	0.69	97.0	0.87	96.6	1.18	96.4	1.49	95.4	2.36	97.1	0.69	96.9	0.90	96.6	1.10	96.2	1.67	95.0	2.74	% TA Area Normalized ([1]; 70° C. Cap Closed, 0 weeks): 97.1%; % Total Deg. Products ([1]; 70° C. Cap Closed, 0 weeks): 0.69%; % TA Area Normalized ([1]; 70° C. Cap Closed, 2 weeks): 96.2%; % Total Deg. Products ([1]; 70° C. Cap Closed, 2 weeks): 1.83%; % TA Area Normalized ([1]; 70° C. Cap Closed, 4 weeks): 93.3%; % Total Deg. Products ([1]; 70° C. Cap Closed, 4 weeks): 4.78%; Form conversion when suspended in solvent ([2]; ACN, ethyl acetate, MTBE and acetone): partially converts to the hemifumarate form; Form conversion when suspended in solvent ([2]; THF and 2-methyl THF): fully converts to the hemifumarate form; Thermodynamic stability ([2]; ethyl acetate): not thermodynamically stable
CC(C)OC(=O)[C@H](C)N[P@](=O)(CO[C@H](C)Cn1cnc2c(N)ncnc21)Oc1ccccc1 [Hemifumarate form, 9-[(R)-2-[[(S)-[[(S)-1-(isopropoxycarbonyl)ethyl]amino]phenoxyphosphinyl]methoxy]propyl]adenine]	98.4	0.05	98.4	0.14	98.5	0.14	98.4	0.25	98.0	0.49	98.4	0.05	98.5	0.15	98.5	0.14	98.4	0.26	98.1	0.50	% TA Area Normalized ([1]; 70° C. Cap Closed, 0 weeks): 98.4%; % Total Deg. Products ([1]; 70° C. Cap Closed, 0 weeks): 0.05%; % TA Area Normalized ([1]; 70° C. Cap Closed, 2 weeks): 98.5%; % Total Deg. Products ([1]; 70° C. Cap Closed, 2 weeks): 0.22%; % TA Area Normalized ([1]; 70° C. Cap Closed, 4 weeks): 98.4%; % Total Deg. Products ([1]; 70° C. Cap Closed, 4 weeks): 0.33%; Hygroscopicity ([3]; 25° C. in nitrogen, 10% to 90% relative humidity): nonhygroscopic; Water absorbed ([3]; 25° C., relative humidity of 90%): 0.65%; Thermodynamic stability ([2]; ethyl acetate, listed as tenofovir alafenamide hemifumarate): thermodynamically stable in most solvents
